Test results reported in patent US6355799B1, “Substituted benzene compounds, process for their preparation, and herbicidal and defoliant compositions containing them” (ISK Americas Incorporated, priority 1997, dated 2002).

Experiments:
Type in all cases: in vivo
[1] = test system: johnsongrass (Sorghum halepense, SORHA); experiment: Post-emerge test, greenhouse herbicide activity screening; details: post-emerge, 14 days after application, rating scale 0-100
Procedure, shortened: (§1)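 Sandy loam pots; pre-emerge: sown 1 d pre-spray, surface-watered after, then bottom-watered. Post-emerge: sown 8–21 d before, 2–3 leaf stage, + 0.25% v/v NIS, bottom-watered. Acetone, 187 l/ha track spray, 15–1000 g ai/ha. 0–100 injury score, day 14.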

[2] = test system: velvetleaf (Abutilon theophrasti, ABUTH); experiment: as above; details: post-emerge, 14 days after application, rating scale 0-100
Procedure, shortened: as §1

[3] = test system: ivyleaf morningglory (Ipomoea hederacea, IPOHE); experiment: as above; details: post-emerge, 14 days after application, rating scale 0-100
Procedure, shortened: as §1

[4] = test system: green foxtail (Setaria viridis, SETVI); experiment: as above; details: post-emerge, 14 days after application, rating scale 0-100
Procedure, shortened: as §1

[5] = test system: common ragweed (Ambrosia artemisizfolia L., AMBEL); experiment: as above; details: post-emerge, 14 days after application, rating scale 0-100
Procedure, shortened: as §1

[6] = test system: redroot pigweed (Amaranthus retroflexus, AMARE); experiment: as above; details: post-emerge, 14 days after application, rating scale 0-100
Procedure, shortened: as §1

[7] = test system: lambsquarters (Chenopodium album, CHEAL); experiment: as above; details: post-emerge, 14 days after application, rating scale 0-100
Procedure, shortened: as §1

[8] = test system: sicklepod (Cassia obtusifolia, CASOB); experiment: as above; details: post-emerge, 14 days after application, rating scale 0-100
Procedure, shortened: as §1

[9] = test system: large crabgrass (Digitaria sanguinalis, DIGSA); experiment: as above; details: post-emerge, 14 days after application, rating scale 0-100
Procedure, shortened: as §1

[10] = test system: barnyardgrass (Echinochloa crus-galli, ECHCG); experiment: as above; details: post-emerge, 14 days after application, rating scale 0-100
Procedure, shortened: as §1

[11] = test system: upland rice (Oryza sp., var. Tebonnet, RICE); experiment: Post-emerge test, crop safety; details: post-emerge, 14 days after application, rating scale 0-100
Procedure, shortened: (§2)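 Herbicidal damage is scored 0 (none) to 100 (complete plant death) two weeks after a simulated field spray. Rates span 15–1000 g ai/ha, delivered in acetone at 187 l/ha. For post-emergence treatments, plants have 2–3 leaves and the spray carries 0.25% v/v non-ionic surfactant.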

[12] = test system: field corn (Zea mays L., var. Dekalb 535, CORN); experiment: Post-emerge test, crop safety; details: post-emerge, 14 days after application, rating scale 0-100
Procedure, shortened: as §2

[13] = test system: upland rice (Oryza sp., var. Tebonnet, RICE); experiment: Pre-emerge test, crop safety; details: rated 14 days after application, 0 = no damage, 100 = complete death
Procedure, shortened: (§3)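 Rating: 0–100 visual injury, 14 DAA. Application: acetone, 187 l/ha, 15–1000 g ai/ha, flat-fan track sprayer with nozzle 40–45 cm above soil or canopy. Post-emerge runs used 0.25% v/v surfactant on 2–3 leaf plants.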

[14] = test system: field corn (Zea mays L., var. Dekalb 535, CORN); experiment: Pre-emerge test, crop safety; details: rated 14 days after application, 0 = no damage, 100 = complete death
Procedure, shortened: as §3

[15] = test system: johnsongrass (Sorghum halepense, SORHA); experiment: Pre-emerge test, greenhouse herbicide activity screening; details: rated 14 days after application, 0 = no damage, 100 = complete death
Procedure, shortened: as §2

[16] = test system: velvetleaf (Abutilon theophrasti, ABUTH); experiment: as above; details: rated 14 days after application, 0 = no damage, 100 = complete death
Procedure, shortened: as §2

[17] = test system: ivyleaf morningglory (Ipomoea hederacea, IPOHE); experiment: as above; details: rated 14 days after application, 0 = no damage, 100 = complete death
Procedure, shortened: as §2

[18] = test system: green foxtail (Setaria viridis, SETVI); experiment: as above; details: rated 14 days after application, 0 = no damage, 100 = complete death
Procedure, shortened: as §2

[19] = test system: common ragweed (Ambrosia artemisizfolia L., AMBEL); experiment: as above; details: rated 14 days after application, 0 = no damage, 100 = complete death
Procedure, shortened: as §2

[20] = test system: lambsquarters (Chenopodium album, CHEAL); experiment: as above; details: rated 14 days after application, 0 = no damage, 100 = complete death
Procedure, shortened: as §2

[21] = test system: sicklepod (Cassia obtusifolia, CASOB); experiment: as above; details: rated 14 days after application, 0 = no damage, 100 = complete death
Procedure, shortened: as §2

[22] = test system: large crabgrass (Digitaria sanguinalis, DIGSA); experiment: as above; details: rated 14 days after application, 0 = no damage, 100 = complete death
Procedure, shortened: as §2

[23] = test system: barnyardgrass (Echinochloa crus-galli, ECHCG); experiment: as above; details: rated 14 days after application, 0 = no damage, 100 = complete death
Procedure, shortened: as §2

[24] = test system: redroot pigweed (Amaranthus retroflexus, AMARE); experiment: as above; details: rated 14 days after application, 0 = no damage, 100 = complete death
Procedure, shortened: as §3

COc1c(Cl)cc(F)c(-n2c(=O)cc(C(F)(F)F)n(C)c2=O)c1NC(=O)c1ccc(CCl)cc1 [2-36]
90: Pre-emerge Herbicidal Activity, phytotoxicity rating (0-100), SETVI ([18]; 250 g ai/ha) | Pre-emerge Herbicidal Activity, phytotoxicity rating (0-100), CHEAL ([20]; 63 g ai/ha)
100: phytotoxicity rating ABUTH ([2]; 63 g ai/ha) | phytotoxicity rating ABUTH ([2]; 250 g ai/ha) | phytotoxicity rating IPOHE ([3]; 63 g ai/ha) | phytotoxicity rating IPOHE ([3]; 250 g ai/ha) | phytotoxicity rating AMARE ([6]; 63 g ai/ha) | phytotoxicity rating AMARE ([6]; 250 g ai/ha) | phytotoxicity rating CHEAL ([7]; 250 g ai/ha) | Pre-emerge Herbicidal Activity, phytotoxicity rating (0-100), ABUTH ([16]; 63 g ai/ha) | Pre-emerge Herbicidal Activity, phytotoxicity rating (0-100), ABUTH ([16]; 250 g ai/ha) | Pre-emerge Herbicidal Activity, phytotoxicity rating (0-100), CHEAL ([20]; 250 g ai/ha) | Pre-emerge Herbicidal Activity, phytotoxicity rating (0-100), AMARE ([24]; 63 g ai/ha) | Pre-emerge Herbicidal Activity, phytotoxicity rating (0-100), AMARE ([24]; 250 g ai/ha)
20: phytotoxicity rating DIGSA ([9]; 63 g ai/ha) | phytotoxicity rating DIGSA ([9]; 250 g ai/ha) | phytotoxicity rating CORN ([12]; 250 g ai/ha) | Pre-emerge Herbicidal Activity, phytotoxicity rating (0-100), SORHA ([15]; 250 g ai/ha)
80: phytotoxicity rating AMBEL ([5]; 63 g ai/ha)
60: phytotoxicity rating SETVI ([4]; 250 g ai/ha) | phytotoxicity rating CASOB ([8]; 63 g ai/ha) | phytotoxicity rating CASOB ([8]; 250 g ai/ha) | Pre-emerge Herbicidal Activity, phytotoxicity rating (0-100), IPOHE ([17]; 250 g ai/ha)
70: Pre-emerge Herbicidal Activity, phytotoxicity rating (0-100), CASOB ([21]; 250 g ai/ha)
95: phytotoxicity rating AMBEL ([5]; 250 g ai/ha) | phytotoxicity rating CHEAL ([7]; 63 g ai/ha)
40: phytotoxicity rating RICE ([11]; 250 g ai/ha) | Pre-emerge phytotoxicity rating (0-100), crop damage, RICE ([13]; 250 g ai/ha)
25: phytotoxicity rating RICE ([11]; 63 g ai/ha) | Pre-emerge Herbicidal Activity, phytotoxicity rating (0-100), SETVI ([18]; 63 g ai/ha)
30: Pre-emerge Herbicidal Activity, phytotoxicity rating (0-100), AMBEL ([19]; 250 g ai/ha) | Pre-emerge Herbicidal Activity, phytotoxicity rating (0-100), DIGSA ([22]; 250 g ai/ha)
50: phytotoxicity rating SETVI ([4]; 63 g ai/ha)
10: phytotoxicity rating SORHA ([1]; 63 g ai/ha) | phytotoxicity rating SORHA ([1]; 250 g ai/ha) | phytotoxicity rating ECHCG ([10]; 63 g ai/ha) | phytotoxicity rating CORN ([12]; 63 g ai/ha) | Pre-emerge Herbicidal Activity, phytotoxicity rating (0-100), CASOB ([21]; 63 g ai/ha) | Pre-emerge Herbicidal Activity, phytotoxicity rating (0-100), ECHCG ([23]; 250 g ai/ha)
0: phytotoxicity rating ECHCG ([10]; 250 g ai/ha) | Pre-emerge phytotoxicity rating (0-100), crop damage, RICE ([13]; 63 g ai/ha) | Pre-emerge phytotoxicity rating (0-100), crop damage, CORN ([14]; 63 g ai/ha) | Pre-emerge phytotoxicity rating (0-100), crop damage, CORN ([14]; 250 g ai/ha) | Pre-emerge Herbicidal Activity, phytotoxicity rating (0-100), SORHA ([15]; 63 g ai/ha) | Pre-emerge Herbicidal Activity, phytotoxicity rating (0-100), IPOHE ([17]; 63 g ai/ha) | Pre-emerge Herbicidal Activity, phytotoxicity rating (0-100), AMBEL ([19]; 63 g ai/ha) | Pre-emerge Herbicidal Activity, phytotoxicity rating (0-100), DIGSA ([22]; 63 g ai/ha) | Pre-emerge Herbicidal Activity, phytotoxicity rating (0-100), ECHCG ([23]; 63 g ai/ha)
